Each structure is given as a SMILES string.

Assay [1] concerns the target T1, 5-hydroxytryptamine receptor 3A (Homo sapiens) (UniProt P46098).
T1 sequence (whole entry): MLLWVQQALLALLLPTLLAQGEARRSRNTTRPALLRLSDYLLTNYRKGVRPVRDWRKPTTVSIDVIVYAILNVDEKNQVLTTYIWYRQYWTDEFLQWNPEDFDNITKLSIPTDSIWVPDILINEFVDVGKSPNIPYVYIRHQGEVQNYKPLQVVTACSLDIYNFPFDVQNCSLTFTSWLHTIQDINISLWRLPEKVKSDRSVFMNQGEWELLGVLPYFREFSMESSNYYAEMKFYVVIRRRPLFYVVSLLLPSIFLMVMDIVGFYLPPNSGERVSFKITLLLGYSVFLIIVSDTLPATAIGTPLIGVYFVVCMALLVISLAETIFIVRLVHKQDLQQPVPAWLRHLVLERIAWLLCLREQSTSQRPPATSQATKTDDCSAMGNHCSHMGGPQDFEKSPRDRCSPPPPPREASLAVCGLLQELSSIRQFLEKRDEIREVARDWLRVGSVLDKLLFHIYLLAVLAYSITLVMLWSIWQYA
Put plainly: Selectivity interaction (GPCR panel (PDSP screen)) EUB0001079a HTR3A. The note with it: at 10 µM.

For assay [2], the target named is T2, Serine/threonine-protein kinase Chk1 (Homo sapiens) (UniProt O14757).
T2 sequence (whole entry): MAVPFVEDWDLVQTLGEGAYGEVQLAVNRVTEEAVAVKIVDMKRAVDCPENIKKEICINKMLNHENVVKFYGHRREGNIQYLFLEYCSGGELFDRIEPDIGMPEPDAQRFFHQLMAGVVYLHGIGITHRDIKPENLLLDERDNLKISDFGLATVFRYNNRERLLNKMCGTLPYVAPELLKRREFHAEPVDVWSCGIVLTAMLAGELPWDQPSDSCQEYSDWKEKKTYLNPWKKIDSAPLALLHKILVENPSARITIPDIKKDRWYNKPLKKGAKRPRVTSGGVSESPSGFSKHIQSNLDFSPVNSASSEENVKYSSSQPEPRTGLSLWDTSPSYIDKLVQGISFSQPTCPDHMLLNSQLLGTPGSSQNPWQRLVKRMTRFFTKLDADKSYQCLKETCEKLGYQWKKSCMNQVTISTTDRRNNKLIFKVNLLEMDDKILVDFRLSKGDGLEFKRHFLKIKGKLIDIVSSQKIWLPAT
Put plainly: Selectivity interaction (Millipore kinase profiler) EUB0000124b CHEK1. The note with it: at 10 µM.

Assay [3] deals with T3, Testis-specific serine/threonine-protein kinase 1 (Homo sapiens) (UniProt Q9BXA7).
T3 sequence (whole entry): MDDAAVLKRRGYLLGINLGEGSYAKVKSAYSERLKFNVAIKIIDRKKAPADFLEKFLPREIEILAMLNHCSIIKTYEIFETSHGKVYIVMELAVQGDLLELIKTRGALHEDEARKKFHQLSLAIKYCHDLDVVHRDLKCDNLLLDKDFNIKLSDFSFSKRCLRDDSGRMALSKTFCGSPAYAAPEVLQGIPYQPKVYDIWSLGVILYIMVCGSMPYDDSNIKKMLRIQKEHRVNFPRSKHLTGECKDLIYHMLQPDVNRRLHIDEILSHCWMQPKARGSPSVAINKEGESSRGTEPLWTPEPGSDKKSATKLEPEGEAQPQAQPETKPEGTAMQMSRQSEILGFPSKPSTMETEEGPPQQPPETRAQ
Put plainly: Selectivity interaction (KinomeScan (DiscoverX)) EUB0000092b TSSK1A. The note with it: at 10 µM.

The target in assay [4] is Mitogen-activated protein kinase kinase kinase kinase 5 (Homo sapiens) (UniProt Q9Y4K4). Put plainly: Selectivity interaction (KinomeScan (DiscoverX)) EUB0000607a MAP4K5. The conditions noted are these: at 10 µM.
Mitogen-activated protein kinase kinase kinase kinase 5 (Homo sapiens), sequence (Q9Y4K4 whole entry, looked up): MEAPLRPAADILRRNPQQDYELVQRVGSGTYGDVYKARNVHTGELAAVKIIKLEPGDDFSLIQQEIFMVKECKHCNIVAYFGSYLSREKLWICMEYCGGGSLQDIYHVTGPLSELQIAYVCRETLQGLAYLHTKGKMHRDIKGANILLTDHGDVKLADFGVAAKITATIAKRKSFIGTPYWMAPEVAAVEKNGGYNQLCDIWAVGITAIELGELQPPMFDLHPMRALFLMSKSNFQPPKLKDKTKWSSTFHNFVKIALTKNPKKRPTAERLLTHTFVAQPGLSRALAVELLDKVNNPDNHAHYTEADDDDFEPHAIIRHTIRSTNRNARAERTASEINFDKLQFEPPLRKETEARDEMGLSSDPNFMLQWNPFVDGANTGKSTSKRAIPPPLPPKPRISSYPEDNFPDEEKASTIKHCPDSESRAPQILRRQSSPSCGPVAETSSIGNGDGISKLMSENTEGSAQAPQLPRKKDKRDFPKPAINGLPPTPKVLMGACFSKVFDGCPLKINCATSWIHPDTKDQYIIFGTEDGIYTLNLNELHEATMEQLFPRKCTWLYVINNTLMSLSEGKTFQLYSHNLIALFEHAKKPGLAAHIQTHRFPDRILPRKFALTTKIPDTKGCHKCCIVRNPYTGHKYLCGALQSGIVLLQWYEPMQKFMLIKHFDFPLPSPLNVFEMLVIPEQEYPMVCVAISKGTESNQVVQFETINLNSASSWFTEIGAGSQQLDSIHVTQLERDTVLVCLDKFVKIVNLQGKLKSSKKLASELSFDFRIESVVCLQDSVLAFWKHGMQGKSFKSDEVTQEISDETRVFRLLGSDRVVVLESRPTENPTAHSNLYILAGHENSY
Assay [5] concerns the target T4, Cyclin-G-associated kinase (Homo sapiens) (UniProt O14976).
T4 sequence (whole entry): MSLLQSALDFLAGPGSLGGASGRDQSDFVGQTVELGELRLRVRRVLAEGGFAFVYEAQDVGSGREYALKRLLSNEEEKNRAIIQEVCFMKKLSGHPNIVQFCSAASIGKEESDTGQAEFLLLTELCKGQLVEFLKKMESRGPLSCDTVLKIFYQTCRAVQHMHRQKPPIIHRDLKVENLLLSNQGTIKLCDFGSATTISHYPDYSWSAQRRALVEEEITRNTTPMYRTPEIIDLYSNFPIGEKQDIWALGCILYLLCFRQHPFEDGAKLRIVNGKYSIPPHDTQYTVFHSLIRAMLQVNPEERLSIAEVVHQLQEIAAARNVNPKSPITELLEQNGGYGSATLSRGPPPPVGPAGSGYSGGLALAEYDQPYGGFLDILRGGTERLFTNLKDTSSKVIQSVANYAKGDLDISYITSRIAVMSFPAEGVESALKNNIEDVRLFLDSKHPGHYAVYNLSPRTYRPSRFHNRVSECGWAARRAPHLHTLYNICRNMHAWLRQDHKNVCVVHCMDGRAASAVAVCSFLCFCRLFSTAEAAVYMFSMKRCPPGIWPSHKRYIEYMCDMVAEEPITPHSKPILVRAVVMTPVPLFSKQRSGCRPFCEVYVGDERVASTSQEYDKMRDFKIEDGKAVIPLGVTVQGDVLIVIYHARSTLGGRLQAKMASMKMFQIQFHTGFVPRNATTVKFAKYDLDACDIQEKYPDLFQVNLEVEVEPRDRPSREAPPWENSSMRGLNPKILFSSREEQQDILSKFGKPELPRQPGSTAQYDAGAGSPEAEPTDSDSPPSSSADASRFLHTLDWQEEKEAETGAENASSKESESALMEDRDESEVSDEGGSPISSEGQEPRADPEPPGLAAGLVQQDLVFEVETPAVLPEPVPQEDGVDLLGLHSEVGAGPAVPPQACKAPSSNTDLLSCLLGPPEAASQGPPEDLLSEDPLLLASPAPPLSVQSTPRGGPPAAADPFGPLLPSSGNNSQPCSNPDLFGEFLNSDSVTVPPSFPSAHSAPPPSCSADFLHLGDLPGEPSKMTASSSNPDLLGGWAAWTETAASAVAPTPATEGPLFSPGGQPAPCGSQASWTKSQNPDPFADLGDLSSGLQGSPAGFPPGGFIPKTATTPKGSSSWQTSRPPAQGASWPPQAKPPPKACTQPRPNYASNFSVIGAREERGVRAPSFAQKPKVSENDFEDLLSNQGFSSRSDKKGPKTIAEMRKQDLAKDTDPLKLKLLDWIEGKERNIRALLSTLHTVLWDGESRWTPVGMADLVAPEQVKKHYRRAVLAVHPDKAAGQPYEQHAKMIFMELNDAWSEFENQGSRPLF
Put plainly: Selectivity interaction (DSF assay) EUB0000229b GAK.

The target of assay [6] is Tyrosine-protein kinase Fes/Fps (Homo sapiens) (UniProt P07332). Put plainly: Selectivity interaction (Kinase panel (DSF assay)) EUB0001559a FES. On the technique in general: Differential scanning fluorimetry follows unfolding on heating by fluorescence.
Tyrosine-protein kinase Fes/Fps (Homo sapiens), sequence (P07332 whole entry): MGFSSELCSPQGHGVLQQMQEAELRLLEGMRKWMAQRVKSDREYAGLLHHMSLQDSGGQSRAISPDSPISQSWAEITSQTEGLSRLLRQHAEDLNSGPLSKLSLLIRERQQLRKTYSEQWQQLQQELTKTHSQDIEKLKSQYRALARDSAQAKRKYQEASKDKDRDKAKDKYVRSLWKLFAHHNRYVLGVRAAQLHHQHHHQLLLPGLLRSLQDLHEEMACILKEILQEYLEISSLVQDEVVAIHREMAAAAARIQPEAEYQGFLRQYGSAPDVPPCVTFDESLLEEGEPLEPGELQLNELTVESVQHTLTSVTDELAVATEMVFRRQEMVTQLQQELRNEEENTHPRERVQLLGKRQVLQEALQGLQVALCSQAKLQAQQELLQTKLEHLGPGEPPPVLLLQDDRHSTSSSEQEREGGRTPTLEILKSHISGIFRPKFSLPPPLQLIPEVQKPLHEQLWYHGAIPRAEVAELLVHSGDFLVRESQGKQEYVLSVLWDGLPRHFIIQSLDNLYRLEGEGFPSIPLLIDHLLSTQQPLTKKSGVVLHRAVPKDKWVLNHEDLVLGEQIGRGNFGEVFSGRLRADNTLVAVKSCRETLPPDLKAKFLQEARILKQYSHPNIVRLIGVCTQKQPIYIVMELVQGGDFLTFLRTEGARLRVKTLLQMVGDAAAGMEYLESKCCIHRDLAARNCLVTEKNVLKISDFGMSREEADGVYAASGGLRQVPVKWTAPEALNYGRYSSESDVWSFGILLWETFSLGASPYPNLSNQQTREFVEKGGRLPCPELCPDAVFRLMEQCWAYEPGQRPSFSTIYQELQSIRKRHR
The target of assay [7] is Mitogen-activated protein kinase 3 (Homo sapiens, UniProt P27361). The experiment in a line: Selectivity interaction (KinomeScan (DiscoverX)) EUB0000595a MAPK3. The note with it: at 10 µM.
Mitogen-activated protein kinase 3, sequence (P27361 whole entry): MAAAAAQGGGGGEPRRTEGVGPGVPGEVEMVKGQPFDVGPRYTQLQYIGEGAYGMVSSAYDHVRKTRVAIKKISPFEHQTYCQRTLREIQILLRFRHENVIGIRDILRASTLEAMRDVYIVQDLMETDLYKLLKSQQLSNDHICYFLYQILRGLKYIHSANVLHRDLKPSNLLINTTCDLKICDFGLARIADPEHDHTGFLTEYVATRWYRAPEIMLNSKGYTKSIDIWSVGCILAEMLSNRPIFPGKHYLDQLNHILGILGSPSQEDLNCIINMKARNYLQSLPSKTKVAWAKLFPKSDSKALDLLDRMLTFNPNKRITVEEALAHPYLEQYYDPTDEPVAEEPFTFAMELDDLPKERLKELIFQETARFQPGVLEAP

As to `Nc1cnc(N2CCc3cc(S(=O)(=O)Nc4c(F)cc(Cl)cc4F)cc(N4CCCC4=O)c32)nc1` [TP-020n], the % of inhibition in assay [1] came out at 0.32%. As to `CC(=O)Nc1cccc(-n2c(=O)n(C3CC3)c(=O)c3c(Nc4ccc(I)cc4F)n(C)c(=O)c(C)c32)c1`, the % of control in assay [2] was 113%. In turn, `CCC(=O)N1CCN(c2ccc(-n3c(=O)ccc4cnc5ccc(-c6cnc7ccccc7c6)cc5c43)cc2C(F)(F)F)CC1` gave a % of control in assay [3] of 100%. As for `CNC(=O)Nc1ccc(-c2nc(N3CC4CCC(C3)O4)c3cnn(C4CCC5(CC4)OCCO5)c3n2)cc1`, in assay [4], the % of control turned out to be 83%. Regarding `COc1cc(N(C)c2ccnc3ccc(C(F)(F)F)cc23)cc(OC)c1OC`, the dTm in assay [5] is -0.3 K. In the case of `CN(C(=O)c1cnn2cccnc12)c1cc2c(cc1N1CCOCC1)C(=O)N(C[C@@H](F)C(C)(C)O)C2`, the dTM in assay [6] is -0.6 K.

Regarding `COCC(=O)NC/C=C/c1ccc2ncnc(Nc3ccc(Oc4ccc(C)nc4)c(C)c3)c2c1` [CP-724714], the % of control in assay [7] is 95%.

(Values after ChEMBL document CHEMBL5465560, “Selectivity Literature for EUbOPEN Chemogenomic Library” (2024).)
